Read-outs that look alike come from different tables or passages of the source.
What was measured:
[1] = tested on: panel of approximately 60 cancer cell lines; experiment: NCI-60 screen (SRB, 48 h), full panel
HCT-15 (Colon cancer) = experiment: NCI-60 screen (SRB, 48 h); conditions: Homo sapiens
OVCAR-5 (Ovarian cancer) = experiment: NCI-60 screen (SRB, 48 h); conditions: Homo sapiens
SK-MEL-5 (Melanoma) = experiment: NCI-60 screen (SRB, 48 h)
IGROV1 (Ovarian cancer) = experiment: NCI-60 screen (SRB, 48 h); conditions: Homo sapiens
PC-3 (Prostate cancer) = experiment: NCI-60 screen (SRB, 48 h); conditions: Homo sapiens
UACC-257 (Melanoma) = experiment: NCI-60 screen (SRB, 48 h); conditions: Homo sapiens
OVCAR-3 (Ovarian cancer) = experiment: cells; conditions: Homo sapiens
HOP-62 (NSC lung cancer) = experiment: NCI-60 screen (SRB, 48 h); conditions: Homo sapiens
[2] = tested on: A549/ATCC (NSC lung cancer); experiment: NCI-60 screen (SRB, 48 h); conditions: Homo sapiens
UACC-62 (Melanoma) = experiment: NCI-60 screen (SRB, 48 h); conditions: Homo sapiens
Leukemia subpanel = experiment: cells; conditions: Homo sapiens
COLO 205 (Colon cancer) = experiment: NCI-60 screen (SRB, 48 h); conditions: Homo sapiens
TK-10 (Renal cancer) = experiment: NCI-60 screen (SRB, 48 h)
OVCAR-8 (Ovarian cancer) = experiment: NCI-60 screen (SRB, 48 h); conditions: Homo sapiens
Renal Cancer subpanel = experiment: NCI-60 screen, subpanel; conditions: Homo sapiens
[3] = tested on: NCI-H322M (NSC lung cancer); experiment: NCI-60 screen (SRB, 48 h); conditions: Homo sapiens
CAKI-1 (Renal cancer) = experiment: NCI-60 screen (SRB, 48 h); conditions: Homo sapiens
HCC-2998 (Colon cancer) = experiment: NCI-60 screen (SRB, 48 h); conditions: Homo sapiens
HS 578T (Breast cancer) = experiment: NCI-60 screen (SRB, 48 h); conditions: Homo sapiens
SNB-19 (CNS cancer) = experiment: NCI-60 screen (SRB, 48 h); conditions: Homo sapiens
SF-268 (CNS cancer) = experiment: NCI-60 screen (SRB, 48 h); conditions: Homo sapiens
DU-145 (Prostate cancer) = experiment: NCI-60 screen (SRB, 48 h); conditions: Homo sapiens
[4] = tested on: MDA-MB-31/ATCC (Breast cancer); experiment: NCI-60 screen (SRB, 48 h); conditions: Homo sapiens
[5] = tested on: NCI-H23 (NSC lung cancer); experiment: NCI-60 screen (SRB, 48 h); conditions: Homo sapiens
[6] = tested on: NCI-H522 (NSC lung cancer); experiment: NCI-60 screen (SRB, 48 h); conditions: Homo sapiens
[7] = tested on: NCI-H226 (NSC lung cancer); experiment: NCI-60 screen (SRB, 48 h); conditions: Homo sapiens

C=C(C)[C@@H]1CC[C@]2(C(=O)N[C@H](CO)Cc3ccccc3)CC[C@]3(C)[C@H](CC[C@@H]4[C@@]5(C)CCCNC(C)(C)[C@@H]5CC[C@]43C)[C@@H]12 [Compound 11]
number of cancer cell lines the compound was active against ([1]; 1 dose 10 µM): effective against the all NCI-60 cancer cell line panel | activity at 10 µM ([1]; Homo sapiens, 48 h, read-out: Mean Growth, %): -83.1% | activity at 10 µM ([1]; Homo sapiens, 48 h, read-out: Range of Growth, %): -97.9 to -46.7% | IC (TGI) ([1]; Homo sapiens, 48 h, read-out: TGI MG_MID60, average over all cell lines): 2640 nM | GI50 ([1]; Homo sapiens, read-out: GI50 MG_MID60): 1290 nM | GI50 ([1]; Homo sapiens, read-out: GI50 against all human tumor cell lines): < 3000 nM | GI50 ([1]; Homo sapiens, read-out: GI50 against the most sensitive cell lines): 200 to 940 nM | CC50 ([1]; Homo sapiens, read-out: LC50 MG_MID60, average over all cell lines): 5620 nM | GI50 (HCT-15 (Colon cancer); HCT-15): 970 nM | IC (TGI) (HCT-15 (Colon cancer); HCT-15, 48 h, read-out: TGI): 2320 nM | GI50 (OVCAR-5 (Ovarian cancer); OVCAR-5): 1690 nM | IC (TGI) (OVCAR-5 (Ovarian cancer); OVCAR-5, 48 h, read-out: TGI): 3180 nM | GI50 (SK-MEL-5 (Melanoma); Homo sapiens, SK-MEL-5): 1670 nM | IC (TGI) (SK-MEL-5 (Melanoma); Homo sapiens, SK-MEL-5, 48 h, read-out: TGI): 3070 nM | CC50 (SK-MEL-5 (Melanoma); Homo sapiens, SK-MEL-5, read-out: LC50): 5640 nM | Growth % of the Most Sensitive Cell Lines (SK-MEL-5 (Melanoma); SK-MEL-5, 1 dose 10 µM): −95.48% | GI50 (IGROV1 (Ovarian cancer); IGROV-1): 1830 nM | IC (TGI) (IGROV1 (Ovarian cancer); IGROV-1, 48 h, read-out: TGI): 3610 nM | GI50 (PC-3 (Prostate cancer); PC-3): 1160 nM | IC (TGI) (PC-3 (Prostate cancer); PC-3, 48 h, read-out: TGI): 2620 nM | GI50 (UACC-257 (Melanoma); UACC-257): 1780 nM | IC (TGI) (UACC-257 (Melanoma); UACC-257, 48 h, read-out: TGI): 3340 nM | CC50 (UACC-257 (Melanoma); UACC-257, read-out: LC50): 6250 nM | GI50 (OVCAR-3 (Ovarian cancer); OVCAR-3): 460 nM | IC (TGI) (OVCAR-3 (Ovarian cancer); OVCAR-3, 48 h, read-out: TGI): 1600 nM | GI50 (HOP-62 (NSC lung cancer); HOP-62): 1710 nM | IC (TGI) (HOP-62 (NSC lung cancer); HOP-62, 48 h, read-out: TGI): 3340 nM | GI50 ([2]; A549): 960 nM | IC (TGI) ([2]; A549, 48 h, read-out: TGI): 2450 nM | GI50 (UACC-62 (Melanoma); UACC-62): 1760 nM | IC (TGI) (UACC-62 (Melanoma); UACC-62, 48 h, read-out: TGI): 3390 nM | CC50 (UACC-62 (Melanoma); UACC-62, read-out: LC50): 6520 nM | IC (TGI) (Leukemia subpanel; 48 h, read-out: TGI MG_MID): 1030 nM | GI50 (Leukemia subpanel; read-out: GI50 MG_MID): 340 nM | GI50 (COLO 205 (Colon cancer); COLO 205): 1310 nM | IC (TGI) (COLO 205 (Colon cancer); COLO 205, 48 h, read-out: TGI): 2940 nM | GI50 (TK-10 (Renal cancer); Homo sapiens, TK-10): 1610 nM | IC (TGI) (TK-10 (Renal cancer); Homo sapiens, TK-10, 48 h, read-out: TGI): 3080 nM | CC50 (TK-10 (Renal cancer); Homo sapiens, TK-10, read-out: LC50): 5890 nM | Growth % of the Most Sensitive Cell Lines (TK-10 (Renal cancer); TK-10, 1 dose 10 µM): −94.69% | GI50 (OVCAR-8 (Ovarian cancer); OVCAR-8): 1120 nM | IC (TGI) (OVCAR-8 (Ovarian cancer); OVCAR-8, 48 h, read-out: TGI): 2800 nM | IC (TGI) (Renal Cancer subpanel; 48 h, read-out: TGI MG_MID): 2930 nM | GI50 (Renal Cancer subpanel; read-out: GI50 MG_MID): 1460 nM | CC50 (Renal Cancer subpanel; read-out: LC50 MG_MID): 5760 nM | GI50 [3]: 1550 nM | IC (TGI) ([3]; 48 h, read-out: TGI): 2790 nM | GI50 (CAKI-1 (Renal cancer); CAKI-1): 1490 nM | IC (TGI) (CAKI-1 (Renal cancer); CAKI-1, 48 h, read-out: TGI): 2890 nM | CC50 (CAKI-1 (Renal cancer); CAKI-1, read-out: LC50): 5600 nM | GI50 (HCC-2998 (Colon cancer); HCC 2998): 1610 nM | IC (TGI) (HCC-2998 (Colon cancer); HCC 2998, 48 h, read-out: TGI): 3050 nM | GI50 (HS 578T (Breast cancer)): 1610 nM | IC (TGI) (HS 578T (Breast cancer); 48 h, read-out: TGI): 3780 nM | GI50 (SNB-19 (CNS cancer); SNB-19): 1170 nM | IC (TGI) (SNB-19 (CNS cancer); SNB-19, 48 h, read-out: TGI): 2720 nM | GI50 (SF-268 (CNS cancer); SF-268): 1560 nM | IC (TGI) (SF-268 (CNS cancer); SF-268, 48 h, read-out: TGI): 3390 nM | GI50 (DU-145 (Prostate cancer); DU-145): 1480 nM | IC (TGI) (DU-145 (Prostate cancer); DU-145, 48 h, read-out: TGI): 2870 nM | GI50 [4]: 1340 nM | IC (TGI) ([4]; 48 h, read-out: TGI): 2770 nM | GI50 ([5]; NCI-H23): 1600 nM | IC (TGI) ([5]; NCI-H23, 48 h, read-out: TGI): 3170 nM | GI50 ([6]; NCI-H522): 1750 nM | IC (TGI) ([6]; NCI-H522, 48 h, read-out: TGI): 3350 nM | CC50 ([6]; NCI-H522, read-out: LC50): 6400 nM | GI50 ([7]; NCI-H226): 1740 nM | IC (TGI) ([7]; NCI-H226, 48 h, read-out: TGI): 4010 nM
